From patent US12036228B2, “Treatment of seizure disorders” (Shackelford Pharma Inc., priority 2022, dated 2024) come the findings set out here.

Several values for one entry are separate records, joined by “and”; a condition that tells them apart may be missing. Equal entries are not always repeated. Where two headings read alike, the source gives them in different places.

The test system of data set [1] is GTC seizures in human patient. The data set can be described thus: Example 7 human patient, intractable GTC seizures. The class given is in vivo. The text has this:
A patient was first diagnosed with intractable GTC seizures without status epilepticus in 2001.
The patient first presented for cannabinoid treatment on May 24, 2013. They were then a PhD student in economics. The patient's medical history is significant for having a car accident with a concussion and “scarring”. They developed GTC seizures occurring 3 times per month. […] In 2008, they started using recreational cannabis occasionally, but not regularly.

The test system of data set [2] is GTC seizures in human patient. The experiment in a line: Example 2 human patient, Dravet syndrome. The data set is classed as in vivo. How it is done: A patient first started having seizures and was subsequently diagnosed with Dravet syndrome. Initially, they were having clusters of 2 GTC seizures a day for 2 days occurring about every 2 weeks. Keppra was ineffective as were other combinations of anti-epileptic drugs. Several different combinations were tried and by the time they were first seen for evaluation for cannabinoid treatment on Aug. 7, 2014, they were taking Depakote 125 mg BID, Clonazepam 0.5 mg TID, and Versed/Diastat as needed for rescue but was still having clusters of GTC seizures every 2 weeks. The patient had started a CBD product on Jul. 3, 2014 (product analysis: 11.2 mg CBD/gm with 0.38 mg THC/gm at a dose of 0.7 mL TID (unknown concentration per mL), but seizures still were occurring irregularly—primarily GTC occurring in clusters of 1-2 per day every two weeks, rare atonic, and occasional eye-flutters.

Data set [3] deals with male CD-1 mice, 6 Hz (22 mA) corneal stimulus psychomotor seizure. The experiment in a line: Mouse 6 Hz seizure (22 mA) test. The data set is classed as in vivo. The settings on record: for % Seizure, group / % Seizure / F. Clonus / Lat H. Movement / Straub T. / Stun / Total (seizure score) / Total (seizure score), group mean / ED50: 30 min before test; for % Seizure: individual animals (0/1); for F. Clonus / Lat H. Movement / Straub T. / Stun / Total (seizure score): individual animals; for ED50: Mus musculus, IP. How it is done: This study assessed the anti-epileptic effects of low doses of dronabinol in the mouse 6 Hz seizure (22 mA) test at 4 dose levels. Sixty male CD-1 mice were randomly allocated to 1 of 7 treatment groups outlined in Table 1 below. The mice were purchased from Charles River Laboratories (St. Constant, Quebec, Canada). On the day of the experiment, general health observations and body weight measurements were performed prior to dosing. Thirty (30) minutes after administration of assigned treatments in Table 1, animals underwent a neurological assessment followed immediately by 6 Hz testing. Descriptions of these procedures are provided below.
Dronabinol and sodium valproate were dissolved in their respective vehicles on the day of dosing. Treatments were intraperitoneally administered to the lower right quadrant of the abdomen according to standard operating procedures. Treatment group summaries are included in Table 1.
On the scheduled test day, subjects received a dose of their assigned treatment 30 minutes before the electrical stimulus. Following neurological assessments, animals then received an electrical stimulus (6 Hz, 0.2 millisecond pulse width, 3 second duration, 22 mA) via corneal electrodes moistened with saline (ECT unit 57800; Ugo Basile). In approximately 50% of control animals, these stimulus parameters should elicit a psychomotor seizure within 30 seconds of stimulus delivery, defined as the expression of at least one of the following behaviours: stun/immobility, forelimb clonus, straub tail, or lateral head movement. Protection was defined as complete absence of the following: stun/immobility, forelimb clonus, straub tail and/or lateral head movement, within 30 seconds of stimulus delivery. A seizure score was assigned to each animal based on the number of these behaviours expressed by the animal after stimulus application. Once the animal either entered into a seizure, or 30 seconds elapsed, the endpoint was reached, and the animal was immediately euthanized.
All statistical analyses were performed using GraphPad Prism v.7.03. Analysis of variance (ANOVA) was completed for total seizure score data with the independent grouping variable of treatment (i.e., test article dose and control). In the event of a significant main effect, post-hoc Fisher's least significant difference analysis was conducted to compare vehicle with drug treatment.

The test system of data set [4] is male CD-1 mice. The data set can be described thus: Neurological assessment (score 0-3) immediately prior to seizure test. The class given is in vivo, mouse. Set-up: key to Neurological Score: 0: Normal; 1: Modest decrease in spontaneous activity; 2: Marked decrease in spontaneous activity; 3: Loss of righting reflex. The settings on record: for Neurological Score: 30 min after dosing, individual animals. On the procedure:
Immediately prior to each seizure test, a brief neurological assessment was performed.

For data set [5], the system named is seizures in human patient. The data set can be described thus: Example 3 human patient, GTC and complex partial seizures. The class given is in vivo. The settings on record: including ataxia; discontinued after 6 months. The text has this:
A patient first started having GTC and complex partial (CP) seizures. […] The patient was referred for evaluation for initiation of cannabinoid/THC treatment in March 2014.

Consider `NC(=O)N1c2ccccc2C=Cc2ccccc21` [Tegretol], for which the side effects result in data set [1] (Tegretol (dose unknown)) is given as “concerning side effects”.

For `CC[C@@H](C(N)=O)N1CCCC1=O` [Keppra, levetiracetam], the effect on seizures result in data set [2] (Dravet patient, initial treatment) is recorded as “ineffective”.

In the case of `NC(=O)N1c2ccccc2CC(=O)c2ccccc21` [Trileptal], the side effects result in data set [1] (Trileptal) is “concerning side effects”.

A word on the ED50: it is the dose that gives a 50% effect, or the effect in half of the subjects. `CCCCCc1cc(O)c2c(c1)OC(C)(C)[C@@H]1CCC(C)=C[C@@H]21` [Dronabinol]: the “% Seizure, group” value in data set [3] (0.002 mg/kg IP, N = 8) was 62.5%; in data set [3] (0.02 mg/kg IP, N = 8), 50.0%; in data set [3] (0.2 mg/kg IP, N = 8), 50.0%; in data set [3] (2 mg/kg IP, N = 11), 54.5%; in data set [3] (4 mg/kg IP, N = 9) it was 33.3%. The “% Seizure” value was 1 (5×) and 0 (3×) in data set [3] (0.002 mg/kg IP, N = 8); 0 (4×) and 1 (4×) in data set [3] (0.02 mg/kg IP, N = 8); 0 (4×) and 1 (4×) in data set [3] (0.2 mg/kg IP, N = 8); 1 (6×) and 0 (5×) in data set [3] (2 mg/kg IP, N = 11); 0 (6×) and 1 (3×) in data set [3] (4 mg/kg IP, N = 9). Further, the “F. Clonus” value in data set [3] (0.002 mg/kg IP, N = 8) is 1 (4×) and 0 (4×); in data set [3] (0.02 mg/kg IP, N = 8), 0 (7×) and 1; in data set [3] (0.2 mg/kg IP, N = 8), 0 (6×) and 1 (2×); in data set [3] (2 mg/kg IP, N = 11), 1 (5×) and 0 (6×); in data set [3] (4 mg/kg IP, N = 9), 0. Moreover, the “Lat H. Movement” value in data set [3] (0.002 mg/kg IP, N = 8) was 1 (3×) and 0 (5×); in data set [3] (0.02 mg/kg IP, N = 8) it was 0 (5×) and 1 (3×); in data set [3] (0.2 mg/kg IP, N = 8), 0 (7×) and 1; in data set [3] (2 mg/kg IP, N = 11) it was 0 (8×) and 1 (3×); in data set [3] (4 mg/kg IP, N = 9) it was 0. Besides, the “Straub T.” value in data set [3] (0.002 mg/kg IP, N = 8) was 0 (7×) and 1; in data set [3] (0.02 mg/kg IP, N = 8) it was 0 (7×) and 1; in data set [3] (0.2 mg/kg IP, N = 8), 0 (5×) and 1 (3×); in data set [3] (2 mg/kg IP, N = 11) it was 0 (10×) and 1; in data set [3] (4 mg/kg IP, N = 9) it was 0 (8×) and 1. For the same compound, the Stun in data set [3] (0.002 mg/kg IP, N = 8) is 1 (4×) and 0 (4×); in data set [3] (0.02 mg/kg IP, N = 8) it was 0 (5×) and 1 (3×); in data set [3] (0.2 mg/kg IP, N = 8), 0 (4×) and 1 (4×); in data set [3] (2 mg/kg IP, N = 11), 0 (8×) and 1 (3×); in data set [3] (4 mg/kg IP, N = 9), 0 (6×) and 1 (3×). In addition, the “Total (seizure score)” value in data set [3] (0.002 mg/kg IP, N = 8) was 3 (2×) and 2 (3×) and 0 (3×); in data set [3] (0.02 mg/kg IP, N = 8) it was 0 (4×) and 2 (2×) and 1 and 3; in data set [3] (0.2 mg/kg IP, N = 8), 0 (4×) and 3 (2×) and 2 (2×); in data set [3] (2 mg/kg IP, N = 11) it was 1 (2×) and 0 (5×) and 2 (3×) and 4; in data set [3] (4 mg/kg IP, N = 9), 0 (6×) and 1 (2×) and 2. Moreover, the “Total (seizure score), group mean” value in data set [3] (0.002 mg/kg IP, N = 8) is recorded as 1.5; in data set [3] (0.02 mg/kg IP, N = 8), 1.0; in data set [3] (0.2 mg/kg IP, N = 8), 1.3; in data set [3] (2 mg/kg IP, N = 11), 1.0; in data set [3] (4 mg/kg IP, N = 9) it was 0.4. Also, in data set [3] (4 mg/kg IP), the “seizure incidence in the 6 HZ seizure test” value is given as “Decreased seizure incidence”. In addition, the “seizure scores (mean±SEM) vs vehicle, post-hoc analysis” value in data set [3] (0.02, 2, and 4 mg/kg doses IP, p<0.05) is on record as “reduction in seizure scores”. In addition, the ED50 in data set [3] (0.002 to 4 mg/kg doses, 95% confidence limits 1.36-11.82 mg/kg, read-out: ED50, decrease in percentage incidence of seizures) turned out to be 4.01 mg/kg; in data set [3] (95% CI (0.01-1.05), read-out: ED50, decrease in the seizure score), 0.1 mg/kg. For the same compound, the “Neurological Score” value in data set [4] (0.002 mg/kg IP, N = 8) was 0; in data set [4] (0.02 mg/kg IP, N = 8) it was 0; in data set [4] (0.2 mg/kg IP, N = 8), 0; in data set [4] (2 mg/kg IP, N = 11), 0; in data set [4] (4 mg/kg IP, N = 9), 0. Further, the “Neurological Score, group mean” value in data set [4] (0.002 mg/kg IP, N = 8) amounted to 0.0; in data set [4] (0.02 mg/kg IP, N = 8), 0.0; in data set [4] (0.2 mg/kg IP, N = 8), 0.0; in data set [4] (2 mg/kg IP, N = 11), 0.0; in data set [4] (4 mg/kg IP, N = 9) it was 0.0. The “effect on behaviour as measured by neurological scoring” value in data set [4] (0.002-4 mg/kg IP) was “no measurable effect on behaviour”.

In the case of `CCCC(CCC)C(=O)[O-].[Na+]` [Sodium Valproate, Sodium valproate], in data set [3] (600 mg/kg IP, N = 4), the “% Seizure, group” value was 0.0%; the “% Seizure” value is listed as 0; the “F. Clonus” value was found to be 0; the “Lat H. Movement” value is given as 0. Also, in data set [3] (600 mg/kg IP, N = 4), the “Straub T.” value is given as 0; the Stun was 0; the “Total (seizure score)” value was determined as 0; the “Total (seizure score), group mean” value worked out at 0.0. For the same compound, the “seizure scores (mean±SEM) vs vehicle, post-hoc analysis” value in data set [3] (p<0.01) is reported as “reduction in seizure scores”. The “motor impairment (neurological assessment)” value in data set [4] (600 mg/kg IP) is on record as “noticeable motor impairment on all animals”. Moreover, in data set [4] (600 mg/kg IP, N = 4), the “Neurological Score” value turned out to be 2 and the “Neurological Score, group mean” value worked out at 2.0.

On to `CCCC(CCC)C(=O)O` [Depakote], for which, in data set [5], the side effects entry is on record as “debilitating side effects”.

In the case of `CC(C)(C)C(O)/C=C/c1ccc2c(c1)OCO2` (stereo not drawn) [stiripentol], the myoclonic seizures result in data set [2] (stiripentol added to Depakote and Onfi (and THC 5 mg HS)) is recorded as “resolution of myoclonic seizures”.
